In PubChem BioAssay (NCI):
“And” between values parts separate entries of the source, which are not always exact repeats. Identical values can stand only once.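 Compound exposure: 48 hours, 5 concentrations, 96-well plates. Abbreviation: GI50, concentration required for 50% inhibition of growth. TGI: total growth inhibition.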 Where a SMILES comes first, the peptide text is derived from it. [ ]: non-standard residue; d: D form. The star is where a group is joined. ξ: configuration not given here. NMeY = CN[C@@H](Cc1ccc(O)cc1)C(=O)O; Cbz = O=C(OCc1ccccc1)*; ξA = CC(N)C(=O)O

What was measured:
Experiment in all cases: growth of human tumour cells (NCI), 48 h
[1] = system: NCI-H23 lung
[2] = system: SF-295 CNS
[3] = system: HOP-62 NSCLC
[4] = system: NCI/ADR-RES ovarian
[5] = system: SK-MEL-28 melanoma
[6] = system: BT-549 breast
[7] = system: EKVX NSCLC
[8] = system: SR leukemia
[9] = system: HL-60(TB) leukemia
[10] = system: LOX IMVI melanoma

Compound	TGI [1]	TGI [2]	TGI [3]	TGI [4]	TGI [5]	TGI [6]	TGI [7]	TGI [8]	TGI [9]	TGI [10]	GI50 [1]	GI50 [2]	GI50 [3]	GI50 [4]	GI50 [5]	GI50 [7]	GI50 [8]	GI50 [10]	GI50 [6]	GI50 [9]
CCOC(=O)/C=C1\Nc2ccccc2C12CCc1c([nH]c3ccccc13)C2C(=O)OCC (stereo not given)	> 100 µM	> 100 µM	> 100 µM	> 100 µM	> 100 µM	> 100 µM	> 100 µM	> 100 µM	> 100 µM	> 100 µM	–	–	–	–	–	–	–	–	–	–
CC(=O)N[C@@H](Cc1ccc(O)cn1)C(=O)NCc1ccc2c(c1)OCO2	> 100 µM	> 100 µM	> 100 µM	> 100 µM	> 100 µM	> 100 µM	> 100 µM	> 100 µM	> 100 µM	> 100 µM	–	–	–	–	–	–	–	–	–	–
COc1ccc(C2CC(c3c(C)nn(-c4ccccc4)c3-c3ccc(C)cc3O)=NN2c2ccccc2)cc1 (stereo not given)	> 30.3 µM	> 100 µM	> 100 µM	> 100 µM	> 100 µM	> 100 µM	> 100 µM	> 100 µM	> 100 µM	> 100 µM	–	–	–	–	–	–	–	–	–	–
O=c1oc2ccccc2cc1-c1nc2ccc([N+](=O)[O-])cc2o1	> 100 µM	> 100 µM	> 100 µM	> 100 µM	> 100 µM	> 100 µM	> 100 µM	> 100 µM	> 100 µM	> 100 µM	–	–	–	–	–	–	–	–	–	–
Oc1ccc2ccccc2c1-c1nnc(CCCCCCCCc2nnc(-c3c(O)ccc4ccccc34)o2)o1	6.33 µM and > 62.2 µM	25 µM and > 93.6 µM	> 25 µM and 12.4 µM	–	> 68.5 µM	> 100 µM	25 µM and > 100 µM	25 µM and 11.9 µM	2.5 µM	25 µM and > 100 µM	1.22 µM	2.83 µM	> 25 µM	0.38 µM	> 25 µM	6.7 µM	1.6 µM and 0.28 µM	0.437 µM	–	–
CN(C)c1ccc(/C=C(\NC(=O)c2ccccc2)C(=O)Nc2ccccc2C(=O)NN2C(=O)CSC2c2ccc(N(C)C)cc2)cc1 (stereo not given)	> 100 µM	> 100 µM	> 100 µM	> 100 µM	> 100 µM	> 100 µM	> 100 µM	> 100 µM	> 100 µM	> 100 µM	–	–	–	–	–	–	–	–	–	–
O=[N+]([O-])c1ccc2nc3ccc([N+](=O)[O-])cn3c2c1	> 100 µM	> 100 µM	39.1 µM	> 100 µM	> 100 µM	> 100 µM	> 100 µM	> 100 µM	> 100 µM	> 100 µM	–	–	–	–	–	–	–	–	–	–
Cc1[nH]c(=O)nc(N/N=C/c2ccc(Cl)c(Cl)c2)c1C(=O)Nc1ccc(Cl)c(Cl)c1	> 44.9 µM	> 30.7 µM	24.8 µM	> 47.6 µM	23.4 µM	39.7 µM	> 100 µM	> 100 µM	> 78.2 µM	> 57 µM	–	–	–	–	–	–	–	–	–	–
COc1cc(C(=O)Nc2nnc(S(N)(=O)=O)s2)cc(OC)c1OC	> 100 µM	> 100 µM	> 100 µM	> 100 µM	> 100 µM	> 100 µM	> 100 µM	> 100 µM	> 100 µM	> 100 µM	–	–	–	–	–	–	–	–	–	–
O=S1(=O)NNC(=NCc2ccc(F)cc2)c2ccccc21	> 100 µM	> 100 µM	> 100 µM	> 100 µM	> 100 µM	> 100 µM	> 100 µM	> 68.8 µM	19.6 µM	> 100 µM	–	–	–	–	–	–	–	–	–	–
COc1ccc(/C=N/Nc2[nH]c(=S)nc3[nH]ncc23)cc1	> 100 µM	> 100 µM	77.9 µM	> 100 µM	> 100 µM	> 100 µM	> 100 µM	> 100 µM	> 100 µM	> 100 µM	–	–	–	–	–	–	–	–	–	–
C=C[C@]1(C)CC[C@]2(C)C(CC[C@@]3(C)C2C[C@H](O)[C@H](O)[C@@]3(C)O)C1 (stereo not given in full)	> 100 µM	> 100 µM	> 100 µM	> 100 µM	> 100 µM	> 100 µM	> 100 µM	> 100 µM	> 100 µM	> 100 µM	–	–	–	–	–	–	–	–	–	–
CC1=NN(c2ccc(C)cc2)C2(C1)SCC(=O)N2c1nc2ccccc2s1 (stereo not given)	77.5 µM	> 100 µM	> 100 µM	76.2 µM	> 100 µM	> 100 µM	99.1 µM	28.1 µM	36.5 µM	76.2 µM	–	–	–	–	–	–	–	–	–	–
O=C1C/C(=C\O)C(=O)c2ccccc2N1	> 100 µM	> 100 µM	> 100 µM	> 100 µM	> 100 µM	> 100 µM	> 100 µM	> 100 µM	> 100 µM	> 100 µM	–	–	–	–	–	–	–	–	–	–
CCCCCCCCCCCCC(=O)NCC(=O)NC(Cc1ccccc1)C(=O)Oc1ccc([N+](=O)[O-])cc1 (stereo not given)	> 100 µM	> 100 µM	> 100 µM	> 100 µM	–	> 100 µM	> 100 µM	> 100 µM	> 100 µM	> 100 µM	–	–	–	–	–	–	–	–	–	–
CNc1ccc2nc(-c3ccc(OC(=O)N(C)C)cc3)cn2c1	40.4 µM	31.5 µM	32.9 µM	59.1 µM	> 100 µM	31.6 µM	33.4 µM	44.1 µM	62.3 µM	31.6 µM	–	–	–	–	–	–	–	–	–	–

Compound	TGI [1]	TGI [2]	TGI [3]	TGI [4]	TGI [5]	TGI [6]	TGI [7]	TGI [8]	TGI [9]	TGI [10]	GI50 [1]	GI50 [2]	GI50 [3]	GI50 [4]	GI50 [5]	GI50 [7]	GI50 [8]	GI50 [10]	GI50 [6]	GI50 [9]
N#Cc1c(=O)c2cccnc2n2c1[nH]c1ccccc12	> 100 µM	> 100 µM	> 100 µM	> 100 µM	> 100 µM	> 100 µM	> 100 µM	> 100 µM	> 100 µM	> 100 µM	–	–	–	–	–	–	–	–	–	–
Cc1ccc(Nc2nc(=O)[nH]c(=O)[nH]2)cc1N	> 100 µM	> 100 µM	> 100 µM	> 100 µM	> 100 µM	> 100 µM	> 100 µM	> 100 µM	> 100 µM	> 100 µM	–	–	–	–	–	–	–	–	–	–
Cc1ccc2ccccc2c1CC1S(=O)(=O)OCCOS1(=O)=O	41 µM	27.4 µM	28.5 µM	72.4 µM	32.8 µM	25.7 µM	29.9 µM	24.9 µM	5.38 µM	22.2 µM	–	–	–	–	–	–	–	–	–	–
COc1ccc(C[C@@H](C(=O)NCC(N)=O)N(C)C(=O)[C@@H]2CCCN2C(=O)[C@H](CC(C)C)NC(=O)C(C)NC(=O)OCc2ccccc2)cc1 (stereo not given in full) (Cbz-[ξA]LP[NMeY](Me)G-NH2)	> 100 µM	> 100 µM	> 100 µM	> 100 µM	> 100 µM	> 100 µM	> 100 µM	> 100 µM	> 100 µM	> 100 µM	–	–	–	–	–	–	–	–	–	–
OC(CC(c1ccccc1)c1ccc(Cl)cc1)c1ccc(Cl)cc1 (stereo not given)	87.8 µM	92 µM	91.4 µM	95.2 µM	> 100 µM	> 100 µM	74.7 µM	73.5 µM	64.6 µM	77.2 µM	–	–	–	–	–	–	–	–	–	–
CCOC(=O)c1cc(-c2ccc(OC)c(OC)c2)c[nH]1	> 10 µM	> 10 µM	> 10 µM	> 10 µM	> 10 µM	> 10 µM	> 10 µM	> 10 µM	> 10 µM	> 10 µM	–	–	–	–	–	–	–	–	–	–
CC(C)=CC(=O)O[C@@H]1CC(C)(C)CC2C3=CCC4[C@]56CC[C@](O)(OC5)C(C)(C)C6CC[C@@]4(C)C3(C)CC[C@]21C(=O)O (stereo not given in full)	89.4 µM	> 100 µM	> 100 µM	> 100 µM	> 100 µM	> 100 µM	> 100 µM	> 100 µM	> 100 µM	44.4 µM	–	–	–	–	–	–	–	–	–	–
COc1cc(C2C(Cl)C(=O)N2c2ccc(Br)cc2)cc(I)c1O (stereo not given)	> 100 µM	> 100 µM	> 100 µM	> 100 µM	–	> 100 µM	> 100 µM	> 100 µM	> 100 µM	> 100 µM	–	–	–	–	–	–	–	–	–	–
CC1=NN(c2nc(N)nc(/C(C#N)=C/c3ccncc3)n2)C(C)(C)C1	> 100 µM	> 100 µM	> 100 µM	> 100 µM	> 100 µM	> 100 µM	> 100 µM	> 100 µM	> 100 µM	> 100 µM	–	–	–	–	–	–	–	–	–	–
O=C1CCSSCCC(=O)Nc2ccccc2N1	> 100 µM	> 100 µM	> 100 µM	> 100 µM	> 100 µM	> 100 µM	> 100 µM	> 100 µM	> 100 µM	> 100 µM	–	–	–	–	–	–	–	–	–	–
CCOC(=O)CCC(NC(=O)OCc1ccccc1)C(=O)NNC(=O)OC(C)(C)C (stereo not given)	> 100 µM	> 100 µM	> 100 µM	> 100 µM	> 100 µM	> 100 µM	> 100 µM	> 100 µM	> 100 µM	> 100 µM	–	–	–	–	–	–	–	–	–	–
CC(=O)N(C(C)=O)n1c(Cc2ccc(Cl)cc2)nn(C(C)=O)c1=O	> 100 µM	> 100 µM	> 100 µM	> 100 µM	> 100 µM	> 100 µM	> 100 µM	> 100 µM	> 100 µM	> 100 µM	–	–	–	–	–	–	–	–	–	–
COc1ccccc1C1C(C#N)=C(N)OC2=C1C(=O)CCC2 (stereo not given)	> 100 µM	> 100 µM	> 100 µM	> 100 µM	> 100 µM	> 100 µM	> 100 µM	> 100 µM	> 100 µM	> 100 µM	> 100 µM	> 100 µM	> 100 µM	> 100 µM	> 100 µM	> 100 µM	14.2 µM	> 100 µM	> 100 µM	> 100 µM
C=CCc1c(O)c2ccccc2[nH]c1=O	> 100 µM	> 100 µM	> 100 µM	> 100 µM	> 100 µM	> 100 µM	> 100 µM	> 100 µM	> 100 µM	> 100 µM	–	–	–	–	–	–	–	–	–	–
COc1cn2c(cc1=O)COc1ccc(-c3ccccc3)cc1-2	> 100 µM	> 100 µM	> 100 µM	> 100 µM	> 100 µM	> 82.9 µM	> 100 µM	> 100 µM	> 100 µM	> 85.5 µM	–	–	–	–	–	–	–	–	–	–
